# Assay results reported in patent US9289509B2, “Uses of immunoconjugates targeting CD138” (Biotest AG, priority 2009, dated 2016).
# Entries after “also recorded” stand apart in the source; their conditions may differ.
# Tested on: relapsed or relapsed/refractory multiple myeloma
# Experiment: Phase I study: response (M-protein, FLC, disease status)
# Type: in vivo, human
# [1] = patient at 160 mg/m^2 (FIG. 26)
substance,measurement,setting,value
BT062,patients with diminished disease progression (at least a fourth treatment cycle),all dose levels 10-200 mg/m^2,At least 11 out of 26
same,treatment cycles of 21 days without disease progression,one patient at 20 mg/m^2,10 treatment cycles
same,response with regard to urine M-protein levels,"patient 003-003, 20 mg/m^2, high sCD138 (2583 ng/mL) before treatment",minor response
same,decrease in urine M-Protein level from Day 42 (3rd treatment),patient at 20 mg/m^2 (FIG. 24),> 75%
same,disease course,patient at 20 mg/m^2 (FIG. 24),Diseases progression after Cycle 10
same,response by M-Protein criteria,"patient at 20 mg/m^2 (FIG. 24), reached after 8th treatment",M-Protein criteria for Minor Response reached after 8th
same,disease status,"patient at 20 mg/m^2, ten treatment cycles",at least stable disease
same,urine M-Protein maximum,"patient at 40 mg/m^2 (FIG. 25), from 0 at screening, defined as not measurable",of about 16 mg/24 h (defined as not measurable)
same,serum M-Protein course,"patient at 40 mg/m^2 (FIG. 25), stabilized for 14 weeks",Serum M-Protein decreased after 1st treatment and stabilized
same,"FLC level reduction vs baseline after 2nd, 3rd and 4th treatment",[1],> 50%
same,FLC level reduction vs baseline during 1st cycle,[1],~40%
same,disease course,[1],Disease progession after the end of the 4th treatment cycle
same,urine M-Protein before 2nd treatment,"patient at 160 mg/m^2 (FIG. 26), 140 mg/24 h at baseline, defined as not measurable",decreased from 140 mg/24 h at baseline to 120 mg/24 h
same,response by FLC criteria,"patient at 160 mg/m^2 (FIG. 26), after 2nd, 3rd and 4th treatment",partial response; also recorded: FLC criteria for Partial Response were reached very early
same,disease status,"repeated single doses of up to 160 mg/m^2, manageable side effects",at least stable disease
